Measured values as given in patent US6028222A (priority 1996, dated 2000).
Several values for one entry are separate records, joined by “and”; a condition that tells them apart may be missing. Equal values may be shown once. Read-outs that look alike come from different tables or passages of the source.

Tests used:
[1] = Predicted time to 5% decrease in paracetamol concentration (Arrhenius law); type: physicochemical; conditions: 25° C., optimal pH, aqueous solution; predicted by Arrhenius law
[2] = aqueous solution; cited from earlier work
[3] = HPLC assay of paracetamol and codein before and after autoclaving; conditions: for assay, after sterilization: 121° C. 20 minutes
[4] = Solubility of paracetamol in dilute solutions (absorbance at 240 nm of filtrate); type: physicochemical
[5] = pH stability of concentrated paracetamol solution; type: physicochemical
Description: Vials that had been filled under nitrogen atmosphere by dispensing 10 ml of such solutions, tightly stoppered and capped, were sterilized by autoclaving at 121° C. for 20 minutes, and then in every case exposed, either to a temperature of 105° C. in the dark for 72 hours, or to a radiation of an actinic light at 5000° K. and 25° C. during 264 hours.

[6] = cited from earlier work
[7] = Paracetamol instability in solution and breakdown products; type: physicochemical
[8] = Stabilization of dilute paracetamol solution by free radical scavengers (formula A); type: physicochemical; conditions: 48 hours
Description: (§1) The solutions thus prepared were divided in 10 ml, 100 ml or 80 ml capacity vials, stoppered with a Bromobutyl stopper and capped with an aluminium cap. The preparation was examined for any pink color development.
After autoclaving at 121° C. for 20 minutes, the vials were stored for 48 hours, either in the presence of actinic light at 5500° K. at room temperature or at 70° C. in the dark (formula A).

[9] = Stabilization of dilute paracetamol + codein phosphate solution by free radical scavengers; type: physicochemical; conditions: 48 hours
Description: The solutions thus prepared were divided in 10 ml capacity vials, stoppered with a Bromobutyl stopper and capped with an aluminium cap. […] The preparation was examined for any change in color.

[10] = Stabilization of concentrated paracetamol solution by free radical scavengers; type: physicochemical; conditions: for Appearance upon exposure to light, color intensity: 48 hours actinic light; for Appearance at 70° C., color intensity: 48 hours, dark
Description: The solutions thus prepared are divided in 10 ml capacity vials, stoppered with a Bromobutyl stopper and capped with an aluminium cap. After autoclaving at 121° C. for 20 minutes, the vials were stored for 48 hours, either in the presence of actinic light at 5500° K. at room temperature or at 70° C. in the dark. The preparation was examined for any change in color.

[11] = system: extensor digitorum longus muscle; test: Muscular tolerance (creatine kinase release from isolated muscle); set-up: species or system Sprague-Dawley rats; conditions: for creatine kinase activity: 15 μl injected
Description: The pH of this solution was not adjusted. Apparent pH is equal to 7,6.
Sprague-Dawley rats, weighing between 260 g and 450 g were anesthesized with an i.p. injection of ethyl carbamate (2 ml/kg of a 50% aqueous solution). The extensor digitorum longus muscle was dissected from the right or left hind leg, and placed in buffer medium having the following composition:
The muscle is transiently fixed to a board and maintained in position by tendons. The test product was injected in an amount of 15 μl by means of a 25 μl-capacity Hamilton seringe no 702. The muscle is then placed over a grit and immersed in the buffer solution kept at 37° C. with carbogen bubbling throughout the incubation period. At 30 minutes intervals, the muscles were introduced in a tube containing fresh buffer at 37° C. The procedure was repeated 4 times.
Creatine kinase was measured using a Hitachi 704 model analyzer in conjunction with a reagent kit sold under tradename high performance Enzyline CK NAC 10 (Biomerieux).

[12] = type: physicochemical; conditions: 48 hours
[13] = Stabilization of dilute paracetamol solution by free radical scavengers (formulation B and C); type: physicochemical
Description: as §1

[14] = toxic metabolite of paracetamol; cited from earlier work
[15] = containing 0.5 mg/ml of cystein hydrochloride
[16] = no free radical scavenger added
[17] = 50 mg/ml, 124° C. 7 minutes, 48 hours room temperature dark
[18] = 0.2 mg/ml, 124° C. 7 minutes, 48 hours room temperature dark
[19] = C.R.L. 0.2 mg/ml, 124° C. 7 minutes, 48 hours room temperature dark

Compound: CC(=O)Nc1ccc(O)cc1 [paracetamol, N-acetyl-p-aminophenol]
- time needed to observe a 5% decrease in paracetamol concentration [1]: 19 months
- pH of minimal breakdown [2]: ~6
- assay, non sterilized solution [3, 15]: 0.0082 g/mL
- assay, after sterilization [3, 15]: 0.0081 g/mL
- assay, non sterilized solution [3, 16]: 0.0078 g/mL
- assay, after sterilization [3, 16]: 0.0077 g/mL
- effect of PEG on paracetamol solubility [4]: increased by the presence of PEG
- Color development upon storage in the presence of light ([5]; pH 7,0 (actual pH 5,8), actinic light, 264 hours): extremely weak
- effect of pH on paracetamol content and breakdown products ([5]; storage in the presence of light): Neither the paracetamol content, nor the breakdown products are affected by pH
- p-aminophen content from hydrolysis, % of initial paracetamol concentration ([6]; 0.1% aqueous solution, dark, 120 days): ~19,8%
- ammonia yield with EDTA added ([6]; 1000 ppm of ascorbic acid + EDTA (0.0075%)): ≤ 14%
- ammonia yield upon exposure to bright light ([6]; 1000 ppm of ascorbic acid): 98%
- decomposition rate with EDTA ([6]; EDTA 0.0075%, 0.1% aqueous solution): 7%
- ammonia concentration on distilling an alkaline solution ([6]; in presence or not of 1000 ppm of ascorbic acid): 14%
- time to color development ([7]; 50° C., in water or in solution no 20): 2 weeks
- color upon exposure to light or storage at high temperature ([7]; in water or in solution no 20): shows rapidly a pink color

Compound: Cl.N[C@@H](CS)C(=O)O [Cystein hydrochloride]
- color at 70° C. ([8]; 0.05 mg/ml): colorless
- color upon exposure to light ([8]; 0.05 mg/ml): colorless
- color at 70° C. ([8]; 0.1 mg/ml): colorless
- color upon exposure to light ([8]; 0.1 mg/ml): colorless
- color at 70° C. ([8]; 0.25 mg/ml): colorless
- color upon exposure to light ([8]; 0.25 mg/ml): colorless
- color at 70° C. ([8]; 0.5 mg/ml): colorless
- color upon exposure to light ([8]; 0.5 mg/ml): colorless
- color at 70° C. ([8]; 0.75 mg/ml): colorless
- color upon exposure to light ([8]; 0.75 mg/ml): colorless
- color at 70° C. ([8]; 1 mg/ml): colorless
- color upon exposure to light ([8]; 1 mg/ml): colorless
- color at 70° C. ([8]; 2 mg/ml): colorless
- color upon exposure to light ([8]; 2 mg/ml): colorless
- color at 70° C. ([8]; 5 mg/ml): colorless
- color upon exposure to light ([8]; 5 mg/ml): colorless
- color at 70° C. ([9]; 0.05 mg/ml): pink
- color at 70° C. ([9]; 1.0 mg/ml): colorless
- color upon exposure to light ([9]; 1.0 mg/ml): colorless
- color at 70° C. ([9]; 2.0 mg/ml): colorless
- color upon exposure to light ([9]; 2.0 mg/ml): colorless
- color at 70° C. ([9]; 5.0 mg/ml): colorless
- color upon exposure to light ([9]; 5.0 mg/ml): colorless
- Appearance upon exposure to light, color intensity ([10]; 1 mg/ml): cloudy
- Appearance at 70° C., color intensity ([10]; 1 mg/ml): cloudy

Compound: NC(N)=S [Thiourea]
- color at 70° C. ([8]; 0.5 mg/ml): colorless
- color upon exposure to light ([8]; 0.5 mg/ml): colorless

Compound: COc1ccc2c3c1O[C@H]1[C@@H](O)C=C[C@H]4[C@@H](C2)N(C)CC[C@@]341 [codein]
- assay, non sterilized solution [3, 15]: 0.00042 g/mL
- assay, after sterilization [3, 15]: 0.00042 g/mL
- assay, non sterilized solution [3, 16]: 0.00043 g/mL
- assay, after sterilization [3, 16]: 0.00042 g/mL

Compound: Nc1ccc(O)cc1 [p-aminophenol]
- p-aminophenol during storage ([7]; aqueous or partially aqueous solutions): not detected

Compound: Triton-X
- creatine kinase activity ([11]; 30 min): 1802 ± 2114 IU/l
- creatine kinase activity ([11]; 60 min): 1716 ± 978 IU/l
- creatine kinase activity ([11]; 90 min): 155 ± 89 IU/l
- creatine kinase activity ([11]; 120 min): 289 ± 251 IU/l
- creatine kinase activity, Total ([11]; Total of 30-120 min): 14962 IU/l

Compound: O=C1O[C@H]([C@@H](O)CO)C([O-])=C1O.[Na+] [Sodium ascorbate]
- color at 70° C. ([12]; 1 mg/ml): yellow
- color upon exposure to light ([12]; 1 mg/ml): yellow
- color at 70° C. ([8]; 0.2 mg/ml): pink
- color upon exposure to light ([8]; 0.2 mg/ml): pink
- color at 70° C. ([8]; 0.4 mg/ml): yellow
- color upon exposure to light ([8]; 0.4 mg/ml): colorless
- color at 70° C. ([8]; 0.6 mg/ml): yellow
- color upon exposure to light ([8]; 0.6 mg/ml): pink
- color at 70° C. ([8]; 1 mg/ml): yellow
- color upon exposure to light ([8]; 1 mg/ml): colorless
- Appearance upon exposure to light, color intensity ([10]; 1 mg/ml): yellow (+)
- Appearance at 70° C., color intensity ([10]; 1 mg/ml): yellow (+)

Compound: OC[C@@H](O)[C@@H](O)[C@H](O)[C@H](O)CO [Mannitol]
- Solution appearance, color ([13]; 20 mg/ml, 124° C. 7 minutes, 48 hours room temperature dark): colorless
- Solution appearance, color ([13]; 40 mg/ml, 124° C. 7 minutes, 48 hours room temperature dark): colorless
- Solution appearance, color [13, 17]: colorless
- Appearance upon exposure to light, color intensity ([10]; 50 mg/ml): colorless
- Appearance at 70° C., color intensity ([10]; 50 mg/ml): colorless

Compound: Glucose
- Solution appearance, color [13, 17]: colorless

Compound: OCC(O)CS (stereo not drawn) [α-monothioglycerol]
- color at 70° C. ([9]; 0.5 mg/ml): grey
- color upon exposure to light ([9]; 0.5 mg/ml): grey
- Appearance upon exposure to light, color intensity ([10]; 1 mg/ml): colorless
- Appearance at 70° C., color intensity ([10]; 1 mg/ml): colorless

Compound: CC(=O)N=C1C=CC(=O)C=C1 [N-acetyl-p-benzoquinone-imine]
- toxic effect [14]: cytotoxic and hemolytic effect

Compound: N[C@@H](CCC(=O)N[C@@H](CS)C(=O)NCC(=O)O)C(=O)O [Reduced glutathion]
- color at 70° C. ([8]; 1 mg/ml): colorless
- color upon exposure to light ([8]; 1 mg/ml): colorless
- color at 70° C. ([9]; 2.0 mg/ml): colorless
- color upon exposure to light ([9]; 2.0 mg/ml): colorless
- Appearance upon exposure to light, color intensity ([10]; 1 mg/ml): colorless
- Appearance at 70° C., color intensity ([10]; 1 mg/ml): colorless
- Appearance upon exposure to light, color intensity ([10]; 8 mg/ml): colorless
- Appearance at 70° C., color intensity ([10]; 8 mg/ml): colorless

Compound: O[C@H](CS)[C@H](O)CS (racemic) [Dithiothreitol]
- color at 70° C. ([12]; 1 mg/ml): violet pink
- color upon exposure to light ([12]; 1 mg/ml): violet pink
- color at 70° C. ([8]; 1 mg/ml): colorless
- color upon exposure to light ([8]; 1 mg/ml): colorless
- color at 70° C. ([9]; 0.5 mg/ml): colorless
- color upon exposure to light ([9]; 0.5 mg/ml): colorless
- Appearance upon exposure to light, color intensity ([10]; 1 mg/ml): colorless
- Appearance at 70° C., color intensity ([10]; 1 mg/ml): colorless

Compound: Cl.N[C@@H](CS)C(=O)O.O [Cystein hydrochloride monohydrate]
- Solution appearance, color [13, 18]: colorless
- Solution appearance, color ([13]; 0.5 mg/ml, 124° C. 7 minutes, 48 hours room temperature dark): colorless
- Dosage of paracetamol (in % of theoretical volume) [13, 19]: 99.2%
- Dosage of paracetamol (in % of theoretical volume) ([13]; C.R.L. 0.5 mg/ml, 124° C. 7 minutes, 48 hours room temperature dark): 99.6%
- Dosage of C.R.L. (in % of theoretical volume) ([13]; dilute paracetamol solution, 2880 min, hydrochloride monohydrate): 80% and 95%

Compound: CC(=O)N[C@@H](CS)C(=O)O [N-acetylcystein]
- Dosage of C.R.L. (in % of theoretical volume) [13, 18]: 88%
- Solution appearance, color [13, 18]: colorless
- Dosage of paracetamol (in % of theoretical volume) [13, 19]: 99.2%
- color at 70° C. ([9]; 2.0 mg/ml): grey
- color upon exposure to light ([9]; 2.0 mg/ml): grey

Compound: O=S([O-])OS(=O)[O-].[Na+].[Na+] [Sodium disulfite]
- color at 70° C. ([12]; 0.295 mg/ml): yellow
- color upon exposure to light ([12]; 0.295 mg/ml): yellow
- color at 70° C. ([9]; 0.295 mg/ml): colorless
- color upon exposure to light ([9]; 0.295 mg/ml): colorless
- Appearance upon exposure to light, color intensity ([10]; 0.295 mg/ml): colorless
- Appearance at 70° C., color intensity ([10]; 0.295 mg/ml): colorless
